According to patent publication US8076369B2, “N-alkyl-hydroxamic acid-isoindolyl compounds and their pharmaceutical uses” (Celgene Corporation, priority 2003, dated 2011):

melting point | SMILES
103 to 105 °C | CCOc1cc([C@@H](CCO)N2Cc3cccc(NC(=O)C4CC4)c3C2=O)ccc1OC [Example 1, (1R)-Cyclopropanecarboxylic acid {2-[1-(3-ethoxy-4-methoxy-phenyl)-3-hydroxy-propyl]-3-oxo-2,3-dihydro-1H-Isoindol-4-yl}-amide]
102 to 104 °C | CCOc1cc([C@@H](CCN(O)C=O)N2Cc3cccc(NC(=O)C4CC4)c3C2=O)ccc1OC [Example 7, (1R)-Cyclopropanecarboxylic acid {2-[1-(3-ethoxy-4-methoxy-phenyl)-3-(N-formyl-N-hydroxy-amino)-propyl]-3-oxo-2,3-dihydro-1H-Isoindol-4-yl}-amide]
79 to 81 °C | CCOc1cc([C@@H](CCN(O)C=O)N2Cc3cccc(NC(C)=O)c3C2=O)ccc1OC [Example 8, (1R)—N-{2-[1-(3-Ethoxy-4-methoxy-phenyl)-3-(N-formyl-N-hydroxy-amino)-propyl]-3-oxo-2,3-dihydro-1H-Isoindol-4-yl}-acetamide]
142 to 144 °C | CCOc1cc([C@@H](CC(C)N(O)C=O)N2Cc3cccc(NC(=O)C4CC4)c3C2=O)ccc1OC (stereo partly drawn) [Example 15, (1R)-Cyclopropanecarboxylic acid {2-[1-(3-ethoxy-4-methoxy-phenyl)-3-(formyl-hydroxy-amino)-butyl]-3-oxo-2,3-dihydro-1H-Isoindol-4-yl}-amide]

The next lines start with the compound.

SMILES | melting point
CCOc1cc(C(CCN(OC(=O)OC(C)(C)C)C(=O)OC(C)(C)C)N2Cc3cccc(NC(=O)C4CC4)c3C2=O)ccc1OC [Example 4, (3R)-(tert-Butoxy)-N-{3-[7-(cyclopropylcarbonylamino)-1-oxoisoindolin-2-yl]-3-(3-ethoxy-4-methoxyphenyl)propyl}carbonylamino(tert-butoxy)formate] | 153 to 155 °C
CCOc1cc(C(CCN(OC(=O)OC(C)(C)C)C(=O)OC(C)(C)C)N2Cc3cccc(N)c3C2=O)ccc1OC (stereo not drawn) [Example 5, N-[3-(7-Amino-1-oxoisoindolin-2-yl)-3-(3-ethoxy-4-methoxyphenyl)propyl](tert-butoxy)carbonylamino (tert-butoxy)formate] | 85 to 87 °C
CCOc1cc([C@@H](CCNO)N2Cc3cccc(NC(=O)C4CC4)c3C2=O)ccc1OC [Example 6, (3R)-Cyclopropanecarboxylic acid {2-[1-(3-ethoxy-4-methoxy-phenyl)-3-hydroxyamino-propyl]-3-oxo-2,3-dihydro-1H-Isoindol-4-yl}-amide] | 136 to 138 °C
CCOc1cc([C@@H](CCN(O)C=O)N2Cc3cccc(NC(=O)C(C)C)c3C2=O)ccc1OC [Example 9, (1R)—N-{2-[1-(3-Ethoxy-4-methoxy-phenyl)-3-(N-formyl-N-hydroxy-amino)-propyl]-3-oxo-2,3-dihydro-1H-Isoindol-4-yl}-Isobutyramide] | 81 to 83 °C
CCOc1cc([C@@H](CCN(O)C=O)N2C(=O)c3cccc(NC(C)=O)c3C2=O)ccc1OC [Example 10, (1R)—N-{2-[1-(3-Ethoxy-4-methoxy-phenyl)-3-(N-formyl-N-hydroxy-amino)-propyl]-1,3-dioxo-2,3-dihydro-1H-Isoindol-4-yl}-acetamide] | 96 to 98 °C
CCOc1cc([C@@H](CCN(C=O)OC(C)=O)N2Cc3cccc(NC(=O)C(C)C)c3C2=O)ccc1OC [Example 11, (1R)—N-{2-[3-(N-Acetoxy-N-formyl-amino)-1-(3-ethoxy-4-methoxy-phenyl)-propyl]-3-oxo-2,3-dihydro-1H-Isoindol-4-yl}-Isobutyramide] | 72 to 74 °C
CCOc1cc([C@@H](CCN(O)C(N)=O)N2Cc3cccc(NC(=O)C(C)C)c3C2=O)ccc1OC [Example 12, (1R)—N-{2-[3-(N-Aminocarbonyl-N-hydroxy-amino)-1-(3-ethoxy-4-methoxy-phenyl)-propyl]-3-oxo-2,3-dihydro-1H-Isoindol-4-yl}-Isobutyramide] | 137 to 139 °C
CCOc1cc(C(CCN(OC(C)=O)C(C)=O)N2Cc3cccc(NC(=O)C4CC4)c3C2=O)ccc1OC (stereo not drawn) [Example 14] | 123 to 125 °C
